Assay results: US11839210B1, “Plant growth promoter with strigolactones regulation activities” (King Abdullah University of Science and Technology, priority 2017, dated 2023)

Key:
Zaxinone Synthase (ZAS) = test: qRT-PCR of ZAS transcript levels in rice after zaxinone or GR24; assay type: in vivo, rice (Nipponbare); conditions: phosphate starvation, 5 μM, 6 h
Protocol: Total RNA was extracted from the roots and shoots using a Qiagen Plant RNeasy Kit according to the manufacturer's instruction. cDNA was synthesized from 1 μg of total RNA using iScript cDNA Synthesis Kit (BIO-RAD Laboratories, Inc, 2000 Alfred Nobel Drive, Hercules, CA, Cat. No #170-8890) according to instructions in the user manual. For mycorrhizal samples, single-strand cDNA was synthesized from 1 μg of total RNA using Super-Script II (Invitrogen) according to instructions in the user manual. Primers used for real-time quantitative RT-PCR (qRT-PCR) analysis are listed below in Table 3. qRT-PCR was performed using SYBR Green Master Mix (Applied Biosystems; www.lifetechnologies.com) in a StepOnePlus (Life Technologies, Carlsbad, CA, USA). For mycorrhizal samples, qRT-PCR was performed using a Rotor-Gene Q 5plex HRM Platform (Qiagen). The 2-ΔCt method was used to calculate the relative gene expression levels and rice Ubiquitin (OsUBQ or OsRubQ1) gene was used as the internal control to normalize target gene expression.
FIGS. 14A-14C show transcript levels of Zaxinone Synthase (ZAS) in wild type roots and shoots. In FIG. 14A, the relative expression levels of ZAS under normal (+Pi) and phosphate-starved (−Pi) conditions in Nipponbare wild-type (WT) roots and shoots is seen. The expression levels in the WT root were normalized to 1. In FIG. 14B, the relative expression levels of ZAS under −Pi conditions with 5 μM of Zaxinone and GR24 treatment in WT rice root and shoot is seen. Three weeks-old seedlings were transferred to new hydroponic pots containing fresh media with or without chemicals for 6 h. The expression levels in the WT-mock were normalized to 1 and the expression levels were detected by qRT-PCR. Ubiquitin was used as a reference gene. Bars represent mean±SD (n=3). Mock treatment (0.1% acetone). Different letters above each bar denote significant difference following a One-way ANOVA test (P<0.05).

[1] = test system: wild-type and zas mutant rice plants; test: Rescue of zas mutant phenotype, soil-grown rice in rhizotron root analysis system; assay type: in vivo, Oryza sativa Nipponbare; conditions: 10 μM zaxinone
Protocol: Three days-old seedlings were grown in soil in Hoagland nutrient solution containing K2HPO4·2H2O (+Pi) with 10 μM zaxinone treatment. The solution was changed every other day for 2 weeks, adding the chemical at each renewal. Plants grown without zaxinone served as the controls and phenotypic data were recorded. To prevent zaxinone degradation from light exposure, 1 μl/ml emulsifier was added into the Hoagland nutrient solution.

4-deoxyorobanchol (4-DO) = test: LC-MS/MS quantification of 4-deoxyorobanchol in rice roots and root exudates; assay type: in vivo; conditions: phosphate-starved, 6 h
Protocol: For the analysis of SLs, one week-old seedlings were further transferred into 50 ml falcon tube (three seedlings per tube) containing Hoagland nutrient solution with K2HPO4·2H2O (+Pi) and grown in the growth cabinet for one week. The rice seedlings were then subjected to phosphate deficiency for another one week period. On the day of root exudates collection, rice seedlings were first treated with 5 μM zaxinone for 6 h and then root exudates and root tissues were collected from each tube for LC-MS/MS analysis and Striga bioassays.
For the quantification of 4-deoxyorobanchol in rice root exudates, 50 ml of root exudate spiked with 0.672 ng of D6-5-deoxystrigol, was brought on a 500 mg/3 ml fast SPE C18 column preconditioned with 6 ml of methanol and 6 ml of water. After washing with 6 ml of water, strigolactones were eluted in 5 ml of acetone. The 4-deoxyorobanchol fraction (acetone-water solution) was concentrated to SLs aqueous solution (˜1 ml), followed by extraction with 1 ml of ethyl acetate. Then 750 μl of 4-deoxyorobanchol enriched organic phase was transferred to a 1.5 ml tube and evaporated to dryness under vacuum. The residue was dissolved in 100 μl of acetonitrile:water (25:75, v:v) and filtered through a 0.22 μm filter for LC-MS/MS analysis.
For the quantification of 4-deoxyorobanchol in rice root, plant tissue material was lyophilized and ground. 30 mg root tissue spiked with 0.672 ng of D6-5-deoxystrigol was extracted with 2 ml of ethyl acetate in an ultrasound bath (Branson 3510 ultrasonic bath) for 15 minutes, followed by centrifugation for 8 minutes at 3800 rpm at 4° C. The supernatant was collected and the pellet was re-extracted with 2 ml of ethyl acetate. The two supernatants were then combined and dried under vacuum. The residue was dissolved in 100 μl of ethyl acetate and 2 ml of hexane. The resulting extract solution was loaded on a Silica gel SPE column (500 mg/3 ml) preconditioned with 3 ml of ethyl acetate and 3 ml of Hexane. After washing with 3 ml of Hexane, 4-deoxyorobanchol was eluted in 3 ml of ethyl acetate and evaporated to dryness under vacuum. The residue was re-dissolved in 200 μl of acetonitrile:water (25:75, v:v) and filtered through a 0.22 μm filter for LC-MS/MS analysis.
4-Deoxyorobanchol was analyzed by using HPLC-Q-Trap-MS/MS with MRM mode. Chromatographic separation was achieved on an Agilent 1200 HPLC system with an Acquity UPLC BEH C18 column (50×2.1 mm; 1.7 μm; Waters Corp.). Mobile phases consisted of water:acetonitrile (95:5, v:v, A) and acetonitrile (B), both containing 0.1% formic acid. […]
SL, 4-deoxyorobanchol (4-DO), was quantified in wild-type and zas mutant roots (FIG. 18A) and root exudates (FIG. 18B) without added zaxinone and in response to zaxinone (5 μM) under phosphate starvation. […]

CC(=O)/C=C/C=C(C)/C=C/C1=C(C)C[C@@H](O)CC1(C)C [zaxinone, 3-OH-β-apo-13-carotenone]
effect on ZAS transcript levels compared between zaxinone and GR24 (Zaxinone Synthase (ZAS); WT rice root tissues): more pronounced effect
ZAS transcript levels in root tissues (Zaxinone Synthase (ZAS); WT rice): negatively impacted
shoots and roots vs untreated control seedlings (visual) ([1]; wild-type seedlings): some improvement
shoots and roots vs untreated control seedlings (visual) ([1]; zas mutant seedlings): substantial improvement
increase of shoot length over untreated seedlings ([1]; zas mutant): about 10 cm
shoot biomass vs untreated ([1]; zas mutant): doubled
root surface area ([1]; zas mutant, untreated 15-20 cm^2): 25-50 cm^2
SL content in roots and root exudates (4-deoxyorobanchol (4-DO); Shiokari d3 mutant, 5 μM): lowered
SL content in roots and root exudates (4-deoxyorobanchol (4-DO); wild-type seedlings, 5 μM zaxinone): Reduction of SL content
SL (4-deoxyorobanchol) content in roots after zaxinone (4-deoxyorobanchol (4-DO); zas mutant seedlings, 5 μM zaxinone, untreated 13): 5 pgmg^−1dry-root-weight
SL (4-deoxyorobanchol) content in root exudates after zaxinone (4-deoxyorobanchol (4-DO); zas mutant seedlings, 5 μM zaxinone, untreated 35): 5 pgmg^−1 dry-root-weight
